pIC50: −log10 of the molar value. Where two headings read alike, the source gives them in different places. Each block holds one molecule with its values, some of them ahead of it.
How the values were obtained:
[1] = biological target: T1, human urate transporter 1 (hURAT1) (Homo sapiens, UniProt Q96S37); test: Inhibitory activity against urate transporter URAT1 (14C-uric acid uptake in Flp-In-T-REx-293-hURAT1 cells); format: cell-based
T1 construct: host or cells: Flp-In-T-REx-293 (HEK293-derived), doxycycline-induced
T1 sequence (Q96S37 1-553): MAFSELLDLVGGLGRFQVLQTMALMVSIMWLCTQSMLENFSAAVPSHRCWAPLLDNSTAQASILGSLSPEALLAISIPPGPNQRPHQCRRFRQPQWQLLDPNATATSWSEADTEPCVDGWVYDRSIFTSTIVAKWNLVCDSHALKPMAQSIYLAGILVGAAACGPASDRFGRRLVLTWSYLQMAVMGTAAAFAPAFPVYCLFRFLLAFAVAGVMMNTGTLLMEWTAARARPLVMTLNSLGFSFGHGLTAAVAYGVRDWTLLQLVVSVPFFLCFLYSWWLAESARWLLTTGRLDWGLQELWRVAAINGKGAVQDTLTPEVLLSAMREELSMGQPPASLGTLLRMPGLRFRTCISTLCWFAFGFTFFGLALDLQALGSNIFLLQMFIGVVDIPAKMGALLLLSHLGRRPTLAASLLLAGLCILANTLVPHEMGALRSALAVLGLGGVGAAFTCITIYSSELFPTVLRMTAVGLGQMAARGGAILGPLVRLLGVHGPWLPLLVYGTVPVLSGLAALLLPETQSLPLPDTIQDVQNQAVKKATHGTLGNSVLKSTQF
Protocol: Inhibitory activity of each compound against urate transporter URAT1 was tested. Compounds: the compounds of the present disclosure were prepared according to the methods in examples; Verinurad was purchased commercially; and CDER167 was prepared according to the method described in the literature (doi: 10.1038/s41401-021-00640-5). Cells: Flp-In-T-REx-293-hURAT1 cells capable of expressing human urate transporter 1 (hURAT1), were purchased from Pharmaron Beijing Co., Ltd., China or can be generated (e.g., by transfecting hURAT1 genes into commercially available Flp-In-T-REx-293 cells according to the method described in the literature doi: 10.1124/dmd.106.012187, and the expression of the hURAT1 genes can be verified by methods such as Western blotting). [drawing 76] The Flp-In-T-REx-293-hURAT1 cells were cultured in a Dulbecco's Modified Eagle Medium (DMEM) in 75 cm^2 flasks under 5% CO2 and 37°C, and passaged every two days. […] The cells were resuspended in the DMEM and then counted, and subsequently prepared into a cell suspension with a proper density. The cells were seeded into a 96-well plate and cultured in a 37°C and 5% CO2 incubator for 24 h. The culture medium was removed, and DMEM containing 200 ng/mL doxycycline was added. The cells were then placed back into the 37°C and 5% CO2 incubator and cultured for 18 h. The test compounds were serially diluted 3-fold in DMSO starting from 10 mmol/L to prepare 10 stock solutions at varying concentrations. A buffer solution was prepared, which contained 125 mmol/L sodium gluconate, 4.8 mmol/L potassium gluconate, 5.6 mmol/L glucose, 1.2 mmol/L potassium dihydrogen phosphate, 1.2 mmol/L magnesium sulfate, 1.3 mmol/L calcium gluconate and 25 mmol/L HEPES (pH = 7.4). 1.2 µL of each test compound stock solution was mixed with 119 µL of buffer to form an assay buffer. After induction for 16 h, the culture medium was removed, and the cells were washed with a prewarmed buffer and incubated for 10 min at 37°C. The buffer was then removed, and an assay buffer containing 50 µmol/L ^14C-uric acid and the test compound was added to the cells, and then the cells were incubated at 37°C for 5 min. The buffer was removed, the cells were washed three times with a precool buffer. Subsequently, 100 mmol/L NaOH was added to lyse the cells for 20 min. The lysate was transferred to a 96-well plate, and then 200 µL of UltimaGold XR scintillation cocktail was added, and radioactivity was measured using a MicroBeta^2 (PerkinElmer). The half-maximal inhibitory concentration (IC50) of each test compound was calculated via GraphPad Prism 8 software using a nonlinear regression fitting equation. The IC50 values were categorized by the following grades: […] Table 2 Inhibitory activity (IC50) of some compounds in the present disclosure against urate transporter

ICR mice = test: Toxicity test: 28-day repeated administration in mice, histopathological examination of liver and kidney; details: intragastric gavage 200 mg/kg once daily for 28 consecutive days, 8 mice per group
Protocol: The toxicity of each compound was evaluated following 28-day repeated administration in mice.
Method: ICR mice that passed quarantine were selected, with equal numbers of males and females. The mice were randomly grouped based on body weight and sex, with 8 mice per group. The test compounds included the compounds of the present disclosure and a positive drug Verinurad. The test compounds were administered to the animals via intragastric gavage at a dosage of 200 mg/kg, once daily for 28 consecutive days. Detailed clinical observations were performed after each administration, with at least 2 h observation following the first administration or upon detection of abnormalities. In addition, cage-side observations were conducted once daily in the afternoon. Observations included clinical signs (animal appearance, behavior, diet, response to stimuli, secretions and excretions) and mortality (time of death or time of discovery of death, pre-mortem signs, etc.). In addition, the symptoms of animals, and the onset, severity, and duration of any observed clinical symptoms of animals were recorded. On Day 28 of administration, the mice were euthanized immediately after blood collection was completed and subjected to necropsy. Livers and left kidneys were collected for paraffin embedding, sectioning and hematoxylin-eosin (HE) staining, followed by histopathological examination to observe tissue lesions. Special attention was paid to the degeneration and inflammatory changes in glomeruli and renal tubules, as well as the presence of urea crystals. The animals euthanized due to found moribund or the animals dead during the experiment were subjected to necropsy promptly.

[2] = Flp-In-T-REx-293-hURAT1 cells, 50 µmol/L 14C-uric acid, 5 min at 37°C, read-out: IC50

Structure (SMILES): CC(C)(Sc1ccc(F)cc1Cn1cc(C#N)c2ccccc21)C(=O)O [Compound F-09]
pIC50 [1]: 6.30 to 7.00
hepatic or renal toxicity upon histopathological examination (ICR mice): no hepatic or renal toxicity

Structure (SMILES): CC(C)(Sc1ccc(Cl)cc1Cn1cc(C#N)c2ccccc21)C(=O)O [Compound F-10]
pIC50 [1, 2]: 6.30 to 7.00
hepatic or renal toxicity upon histopathological examination (ICR mice): no hepatic or renal toxicity

Structure (SMILES): CC(C)(Sc1ccncc1-c1ccc(C#N)c2ccccc12)C(=O)O [Verinurad, reference compound]
pIC50 [1, 2]: 6.00 to 6.30
renal toxicity (number of mice affected) (ICR mice): 3 out of 8
renal toxicity (percentage of mice affected) (ICR mice): 37.5%

Structure (SMILES): CC(C)(Sc1ccccc1Cn1cc(C#N)c2c(F)cccc21)C(=O)O [Compound F-14]
pIC50 [1]: 6.30 to 7.00
hepatic or renal toxicity upon histopathological examination (ICR mice): no hepatic or renal toxicity

Structure (SMILES): CC(C)(Sc1ccccc1Cn1cc(C#N)c2ccc(F)cc21)C(=O)O [Compound F-16]
pIC50 [1]: 6.30 to 7.00
hepatic or renal toxicity upon histopathological examination (ICR mice): no hepatic or renal toxicity

Structure (SMILES): N#Cc1cn(Cc2ccccc2SC2(C(=O)O)CCC2)c2ncccc12 [Compound F-20]
pIC50 [1]: 6.30 to 7.00
hepatic or renal toxicity upon histopathological examination (ICR mice): no hepatic or renal toxicity

Structure (SMILES): COc1ccc(SC(C)(C)C(=O)O)c(Cn2cc(C#N)c3ccccc32)c1 [Compound F-13]
pIC50 [1, 2]: 6.30 to 7.00
hepatic or renal toxicity upon histopathological examination (ICR mice): no hepatic or renal toxicity

pIC50 [1, 2]: < 6.00
Structure (SMILES): CC(C)(Sc1ccncc1Cc1ccc(C#N)c2ccccc12)C(=O)O [CDER167, reference compound]

Structure (SMILES): N#Cc1cn(Cc2cc(Br)ccc2SC2(C(=O)O)CCC2)c2ncccc12 [Compound F-28]
pIC50 [1, 2]: 6.30 to 7.00
hepatic or renal toxicity upon histopathological examination (ICR mice): no hepatic or renal toxicity

Structure (SMILES): COc1ccc(SC2(C(=O)O)CCC2)c(Cn2cc(C#N)c3cccnc32)c1 [Compound F-30]
pIC50 [1, 2]: 6.30 to 7.00
hepatic or renal toxicity upon histopathological examination (ICR mice): no hepatic or renal toxicity

Structure (SMILES): CC(C)(Sc1ccccc1Cn1cc(C#N)c2cnccc21)C(=O)O [Compound F-05]
pIC50 [1, 2]: > 7.00
hepatic or renal toxicity upon histopathological examination (ICR mice): no hepatic or renal toxicity

Structure (SMILES): CC(C)(Sc1ccccc1Cn1cc(C#N)c2cccc(F)c21)C(=O)O [Compound F-17]
pIC50 [1]: 6.30 to 7.00
hepatic or renal toxicity upon histopathological examination (ICR mice): no hepatic or renal toxicity

Structure (SMILES): N#Cc1cn(Cc2cc(Cl)ccc2SC2(C(=O)O)CCC2)c2ncccc12 [Compound F-27]
pIC50 [1, 2]: 6.30 to 7.00
hepatic or renal toxicity upon histopathological examination (ICR mice): no hepatic or renal toxicity

Structure (SMILES): CC(C)(Sc1ccccc1Cn1cc(C#N)c2cncnc21)C(=O)O [Compound F-08]
pIC50 [1, 2]: 6.30 to 7.00
hepatic or renal toxicity upon histopathological examination (ICR mice): no hepatic or renal toxicity

Structure (SMILES): CC(C)(Sc1ccc(Br)cc1Cn1cc(C#N)c2ccccc21)C(=O)O [Compound F-11]
pIC50 [1, 2]: 6.30 to 7.00
hepatic or renal toxicity upon histopathological examination (ICR mice): no hepatic or renal toxicity

Structure (SMILES): Cc1ccc(SC(C)(C)C(=O)O)c(Cn2cc(C#N)c3ccccc32)c1 [Compound F-12]
pIC50 [1]: 6.30 to 7.00
hepatic or renal toxicity upon histopathological examination (ICR mice): no hepatic or renal toxicity

Structure (SMILES): N#Cc1cn(Cc2cc(F)ccc2SC2(C(=O)O)CCC2)c2ncccc12 [Compound F-26]
pIC50 [1]: 6.30 to 7.00
hepatic or renal toxicity upon histopathological examination (ICR mice): no hepatic or renal toxicity

Structure (SMILES): CC(C)(Sc1ccccc1Cn1cc(C#N)c2cccnc21)C(=O)O [Compound F-07]
pIC50 [1]: > 7.00
hepatic or renal toxicity upon histopathological examination (ICR mice): no hepatic or renal toxicity

Structure (SMILES): CC(C)(Sc1ccccc1Cn1cc(C#N)c2ccccc21)C(=O)O [Compound F-02]
pIC50 [1]: 6.30 to 7.00
hepatic or renal toxicity upon histopathological examination (ICR mice): no hepatic or renal toxicity

Source: patent publication EP4768471A1, “SIX-MEMBERED AND FIVE-MEMBERED FUSED RING DERIVATIVE, AND PREPARATION METHOD THEREFOR AND USE THEREOF” (Guangdong Hengqin Novagains Biopharmaceutical Co., Ltd., priority 2023, dated 2025)
